Source: patent US7928238B2, “1,2,3,4-tetrahydro-quinoline derivatives as CETP inhibitors” (Janssen Pharmaceutica NV, priority 2006, dated 2011)
Where “and” joins values, the source holds several entries; their conditions need not be identical. Identical values can stand only once.

Target: T1, CETP (Homo sapiens, UniProt P11597)
T1 construct: from tissue; host or cells: human plasma from normal volunteers
T1 sequence (P11597 18-493): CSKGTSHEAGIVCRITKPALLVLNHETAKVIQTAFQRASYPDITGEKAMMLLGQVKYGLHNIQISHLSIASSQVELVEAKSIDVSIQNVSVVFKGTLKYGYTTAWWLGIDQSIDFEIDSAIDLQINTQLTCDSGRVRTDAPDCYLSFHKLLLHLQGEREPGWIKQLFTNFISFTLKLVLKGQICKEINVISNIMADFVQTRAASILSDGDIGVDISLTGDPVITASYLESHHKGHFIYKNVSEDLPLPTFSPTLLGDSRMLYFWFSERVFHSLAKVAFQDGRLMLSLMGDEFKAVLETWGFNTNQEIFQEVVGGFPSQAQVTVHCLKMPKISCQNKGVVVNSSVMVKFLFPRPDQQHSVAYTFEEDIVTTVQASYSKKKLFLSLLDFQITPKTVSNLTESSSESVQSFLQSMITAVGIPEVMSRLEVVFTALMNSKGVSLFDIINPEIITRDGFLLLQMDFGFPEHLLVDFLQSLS
Experiment: CETP in vitro assay (Amersham kit TRKQ7005; modified protocol in human plasma, [3H]CE-HDL transfer)
Type: biochemical
Conditions: for inhibition at 1 µM / % Inhibition @ 1 μM: 1 μM compound; for inhibition at 1 µM: read-out: % Inhibition @ 1 μM; for IC50: from plots of % control versus compound concentration
Method: The CETP inhibitory activity of the compounds was determined using a commercially available kit from Amersham Biosciences (Catalog #TRKQ7005).
Briefly, 80 μl of human plasma (obtained from normal volunteers), approximately 25 μg/ml (20 μl) of [^3H]CE-HDL (Amersham Biosciences from kit TRKQ7005) and 1 μl of compound dissolved in DMSO was incubated for at least 4 hrs at 37° C. and non-specific transfer was determined by incubating a corresponding plate at 4° C. (blank). After the incubation period, 10 μl of a solution of 1% Dextralip 50/0.5M MgCl2, pH 7.4 was added, vortexed and incubated at room temperature for 10 min. The plate was then centrifuged for 30 min at 10° C. at 300 rpm in a Sorvall RT6000B centrifuge. Fifty microliters of the supernatant was transferred to a Picoplate (Packard) containing 100 μl of Microscint 40 (Perkin Elmer) and mixed for 30 min using a plate mixer. The radioactivity was counted using a TopCount (Perkin Elmer) and the % control was determined in the samples using the following formula: % transfer relative to vehicle controls (% control)=[cpm blank−cpm test]/cpm blank/cpm control]×100. IC50s were calculated from plots of the % control versus compound concentration.

SMILES | inhibition at 1 µM | % Inhibition @ 1 μM | IC50
CCC1CCc2c(-c3cccc(OC(F)(F)F)c3)cccc2N1Cc1cccc(OC(F)(F)F)c1 (stereo not shown) [Compound 39, 2-Ethyl-1-(3-trifluoromethoxy-benzyl)-5-(3-trifluoromethoxy-phenyl)-1,2,3,4-tetrahydro-quinoline] | 17% |  | 
OC(CN1c2cccc(Oc3cccc(Cl)c3Cl)c2CCC1c1cccc(OC(F)(F)C(F)F)c1)C(F)(F)F (stereo not shown) [Compound 87, 3-{5-(2,3-Dichloro-phenoxy)-2-[3-(1,1,2,2-tetrafluoro-ethoxy)-phenyl]-3,4-dihydro-2H-quinolin-1-yl}-1,1,1-trifluoro-propan-2-ol] |  | 86% | 400 nM
Oc1cccc(-c2cccc3c2CCC(c2cccc(OC(F)(F)C(F)F)c2)N3CC(O)C(F)(F)F)c1 (stereo not shown) [Compound 43, 3-[2-[3-(1,1,2,2-Tetrafluoro-ethoxy)-phenyl]-1-(3,3,3-trifluoro-2-hydroxy-propyl)-1,2,3,4-tetrahydro-quinolin-5-yl]-phenol] |  | 23% | 
C[C@@H](O)CN1c2cccc(-c3cccc(Cl)c3)c2CC[C@@H]1c1cccc(OC(F)(F)F)c1 [Compound 40] | 37% | 32% | 150 nM
OC(CN1c2cccc(Oc3cccc(Cl)c3Cl)c2CCC1c1cccc(OC(F)(F)C(F)F)c1)C(F)(F)F (stereo not shown) [Compound 86, 3-{5-(2,3-Dichloro-phenoxy)-2-[3-(1,1,2,2-tetrafluoro-ethoxy)-phenyl]-3,4-dihydro-2H-quinolin-1-yl}-1,1,1-trifluoro-propan-2-ol] | 67% |  | 
O[C@@H](CN1c2cccc(-c3cccc(F)c3)c2CC[C@@H]1c1cccc(OC(F)(F)C(F)F)c1)C(F)(F)F [Compound 82, (2R, αS)-3,4-Dihydro-2-[3-(1,1,2,2-tetrafluoroethoxy)phenyl]-5-[3-(fluoro)phenyl]-α-(trifluoromethyl)-1(2H)-quinolineethanol] | 84% | 76% | 122 nM and 93 nM
OC(CN1c2cccc(-c3cccnc3)c2CCC1c1cccc(OC(F)(F)C(F)F)c1)C(F)(F)F (stereo not shown) [Compound 76, 1,1,1-Trifluoro-3-{5-pyridin-3-yl-2-[3-(1,1,2,2-tetrafluoro-ethoxy)-phenyl]-3,4-dihydro-2H-quinolin-1-yl}-propan-2-ol] | 57% | 38% | 
N#Cc1cccc(-c2cccc3c2CCC(c2cccc(OC(F)(F)C(F)F)c2)N3CC(O)C(F)(F)F)c1 (stereo not shown) [Compound 9, 3-[2-[3-(1,1,2,2-Tetrafluoro-ethoxy)-phenyl]-1-(3,3,3-trifluoro-2-hydroxy-propyl)-1,2,3,4-tetrahydro-quinolin-5-yl]-benzonitrile] |  | 82% and 85% | 177 nM and 293 nM
CC(C)Oc1cccc(-c2cccc3c2CCC(c2cccc(OC(F)(F)C(F)F)c2)N3CC(O)C(F)(F)F)c1 (stereo not shown) [Compound 69, 1,1,1-Trifluoro-3-{5-(3-isopropoxy-phenyl)-2-[3-(1,1,2,2-tetrafluoro-ethoxy)-phenyl]-3,4-dihydro-2H-quinolin-1-yl}-propan-2-ol] |  | 18% | 
OC(CN1c2cccc(-c3ccsc3)c2CCC1c1cccc(OC(F)(F)C(F)F)c1)C(F)(F)F (stereo not shown) [Compound 65, 1,1,1-Trifluoro-3-{2-[3-(1,1,2,2-tetrafluoro-ethoxy)-phenyl]-5-thiophen-3-yl-3,4-dihydro-2H-quinolin-1-yl}-propan-2-ol] |  | 16% | 
OC(CN1c2cccc(-c3cccc(OC(F)(F)F)c3)c2CCC1c1ccccc1OC(F)(F)C(F)F)C(F)(F)F (stereo not shown) [Compound 89, 1,1,1-Trifluoro-3-[2-[2-(1,1,2,2-tetrafluoro-ethoxy)-phenyl]-5-(3-trifluoromethoxy-phenyl)-3,4-dihydro-2H-quinolin-1-yl]-propan-2-ol] |  | 9% | 
OC(CN1c2cccc(-c3ccc(OC(F)(F)F)cc3)c2CCC1c1cccc(OC(F)(F)C(F)F)c1)C(F)(F)F (stereo not shown) [Compound 7, 1,1,1-Trifluoro-3-[2-[3-(1,1,2,2-tetrafluoro-ethoxy)-phenyl]-5-(4-trifluoromethoxy-phenyl)-3,4-dihydro-2H-quinolin-1-yl]-propan-2-ol] |  | 61, 61% | 
OC(CCl)CN1c2cccc(-c3cccc(OC(F)(F)F)c3)c2CCC1c1cccc(OC(F)(F)F)c1 (stereo not shown) [Compound 48, 1-[2,5-Bis-(3-trifluoromethoxy-phenyl)-3,4-dihydro-2H-quinolin-1-yl]-3-chloro-propan-2-ol] |  | 0% | 
OC(CN1c2cccc(-c3ccsc3)c2CCC1c1cccc(OC(F)(F)C(F)F)c1)C(F)(F)F (stereo not shown) [Compound 64, 1,1,1-Trifluoro-3-{2-[3-(1,1,2,2-tetrafluoro-ethoxy)-phenyl]-5-thiophen-3-yl-3,4-dihydro-2H-quinolin-1-yl}-propan-2-ol] |  | 61% and 70% and 78% | 300 nM
Cc1cc(-c2cccc3c2CCC(c2cccc(OC(F)(F)C(F)F)c2)N3CC(O)C(F)(F)F)ccc1Cl (stereo not shown) [Compound 5, 3-{5-(4-Chloro-3-methyl-phenyl)-2-[3-(1,1,2,2-tetrafluoro-ethoxy)-phenyl]-3,4-dihydro-2H-quinolin-1-yl}-1,1,1-trifluoro-propan-2-ol] |  | 96% | 260 nM and 381 nM
OC(CN1c2cccc(-c3cccc(OC(F)(F)F)c3)c2CCC1c1cccc(Cl)c1)C(F)(F)F (stereo not shown) [Compound 29, 3-[2-(3-Chloro-phenyl)-5-(3-trifluoromethoxy-phenyl)-3,4-dihydro-2H-quinolin-1-yl]-1,1,1-trifluoro-propan-2-ol] |  | 39% | 290 nM
CC(C)c1cccc(-c2cccc3c2CCC(c2cccc(OC(F)(F)C(F)F)c2)N3CC(O)C(F)(F)F)c1 (stereo not shown) [Compound 67, 1,1,1-Trifluoro-3-{5-(3-isopropyl-phenyl)-2-[3-(1,1,2,2-tetrafluoro-ethoxy)-phenyl]-3,4-dihydro-2H-quinolin-1-yl}-propan-2-ol] |  | 29% | 
COc1cccc(-c2cccc3c2CCC(c2cccc(OC(F)(F)C(F)F)c2)N3CC(O)C(F)(F)F)c1 (stereo not shown) [Compound 73, 1,1,1-Trifluoro-3-{5-(3-methoxy-phenyl)-2-[3-(1,1,2,2-tetrafluoro-ethoxy)-phenyl]-3,4-dihydro-2H-quinolin-1-yl}-propan-2-ol] |  | 50% and 26% | 
OC(CN1c2cccc(-c3cccs3)c2CCC1c1cccc(OC(F)(F)C(F)F)c1)C(F)(F)F (stereo not shown) [Compound 75, 1,1,1-Trifluoro-3-{2-[3-(1,1,2,2-tetrafluoro-ethoxy)-phenyl]-5-thiophen-2-yl-3,4-dihydro-2H-quinolin-1-yl}-propan-2-ol] |  | 39% | 
OC(CN1c2cccc(-c3cccc(OC(F)(F)F)c3)c2CCC1c1cccc(C(F)(F)F)c1)C(F)(F)F (stereo not shown) [Compound 18, 1,1,1-Trifluoro-3-[5-(3-trifluoromethoxy-phenyl)-2-(3-trifluoromethyl-phenyl)-3,4-dihydro-2H-quinolin-1-yl]-propan-2-ol] |  | 40% and 35% | 2900 nM
OC(CN1c2cccc(-c3cccc(F)c3)c2CCC1c1cccc(OC(F)(F)C(F)F)c1)C(F)(F)F (stereo not shown) [Compound 11, 1,1,1-Trifluoro-3-{5-(3-fluoro-phenyl)-2-[3-(1,1,2,2-tetrafluoro-ethoxy)-phenyl]-3,4-dihydro-2H-quinolin-1-yl}-propan-2-ol] |  | 101% and 99% and 79% | 70 nM and 95 nM and 187 nM
CC(C)c1cccc(-c2cccc3c2CCC(c2cccc(OC(F)(F)C(F)F)c2)N3CC(O)C(F)(F)F)c1 (stereo not shown) [Compound 66, 1,1,1-Trifluoro-3-{5-(3-isopropyl-phenyl)-2-[3-(1,1,2,2-tetrafluoro-ethoxy)-phenyl]-3,4-dihydro-2H-quinolin-1-yl}-propan-2-ol] |  | 60% and 65% | 181 nM and 374 nM
OC(CN1c2cccc(-c3cccc(OC(F)(F)F)c3)c2CCC1c1cccc(OC(F)(F)F)c1)C(F)(F)F (stereo not shown) [Compound 31, 3-[2,5-Bis-(3-trifluoromethoxy-phenyl)-3,4-dihydro-2H-quinolin-1-yl]-1,1,1-trifluoro-propan-2-ol] |  | 77% and 72% and 67% and 66% and 62% | 150 nM and 100 nM
